Results reported in patent publication US20150297600A1, “Method Of Achieving Increased Systemic Availability of Methotrexate” (Antares Pharma, Inc., priority 2014, published 2015).
Entries after “also recorded” stand apart in the source; their conditions may differ.

Key:
[1] = Description: An algorithm was developed to correlate a known oral dose of methotrexate to a jet injector dose. Table 1 illustrates the calculated correlation between oral doses and needle-assisted jet injector doses of methotrexate. The second column illustrates the precise subcutaneous dose calculated based on the algorithm, described in detail below. The third column represents the administrable dose, based on commercially available doses, closest in value to the precise calculated dose.
Based on the data set forth in table 1, a line equation of y=mx+b was developed to correlate an oral dose of methotrexate to an equivalent dose for use with a jet injector. In the present equation, illustrated by the graph shown in FIG. 1, the slope, m, was determined to be 0.6101 and a y-intercept, b, to be 2.9274. The correlation coefficient of the line, R^2, is 0.9594.

[2] = Multicenter three-way crossover study: oral vs subcutaneous (abdomen, thigh) methotrexate, blood drug levels for 24 hours and adverse events; format: in vivo, patients with adult RA
Procedure: A multicenter, three-way crossover study was conducted, wherein patients greater than or equal to 18 years old with adult RA undergoing treatment with MTX for three months or more were assigned to receive one of four dose levels of OTREXUP™ (subcutaneous methotrexate), 10 mg, 15 mg, 20 mg, and 25 mg weekly in a random sequence of three treatments: oral, subcutaneous into the abdomen and subcutaneous into the thigh. For 24 hours after the administration of each treatment, blood samples were collected to measure drug levels and injection sites were assessed.

slope, m, of line equation correlating oral dose to equivalent jet injector dose [1]: 0.6101
y-intercept, b, of line equation correlating oral dose to equivalent jet injector dose [1]: 2.9274
Compound: CN(Cc1cnc2nc(N)nc(N)c2n1)c1ccc(C(=O)N[C@@H](CCC(=O)O)C(=O)O)cc1 [methotrexate]
plasma levels of oral dosed methotrexate, 20 mg or 25 mg doses versus 15 mg doses ([2]; oral): no greater
systemic availability of methotrexate following oral dosing ([2]; oral, 10, 15, 20, 25 mg weekly, RA patients): do not provide increased systemic availability; also recorded: plateaus at 15 mg and greater
association of higher systemic methotrexate exposure with adverse events ([2]; short term study): not associated with increases in adverse events
